The test concerns the target Neuraminidase (Influenza A virus (A/Memphis/1/1971(H3N2)), UniProt P03471, E119V). In words: Inhibition of influenza A virus H3N2 (A/Moscow/10/99) harboring E119V mutant neuraminidase using MUNANA as substrate preincubated for 30 mins followed by substrate addition by fluorescence-based assay.

Consider one molecule from ChEMBL document CHEMBL5321229, “Conformationally locked sugar derivatives and analogues as potential neuraminidase inhibitors” (Eur J Med Chem, 2023).

The term IC50 denotes the concentration that inhibits the measured activity by half. High values mean weaker potency in that assay, low ones greater potency in that assay.

As for `CCC(CC)O[C@@H]1C=C(C(=O)O)C[C@H](n2nncc2-c2cccc(N)c2)[C@H]1NC(C)=O`, the IC50 was determined as 790 nM.
